Results published in the supplement of paper PMC10331698.
± gives the standard deviation of the averaged measurements.

How the values were obtained:
Assay in all cases: level (log10 ratio to DMSO vehicle control); higher = higher biomarker level / cell amount than vehicle control
Conditions in all cases: in DMSO
Heptafluorobutyl iodide = compound: FC(F)(F)C(F)(F)C(F)(F)CI [Heptafluorobutyl iodide]
Protocol: (§1)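 BioMAP Diversity Plus panel of 12 human primary cell co-culture systems (3C, 4H, LPS, SAg, BT, BF4T, BE3C, CASM3C, HDF3CGF, KF3CT, MyoF, Mphg). Compounds were added 1 h before stimulation and left for 24 h (MyoF 48 h; BT 72 h for soluble read-outs or 6 d for IgG). Biomarkers were read by ELISA, cytotoxicity by SRB, PBMC viability and proliferation by Alamar Blue. Each well value was divided by the mean of 8 DMSO control wells on the same plate and log10 transformed; duplicate blinded samples were tested at 4 concentrations.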

[1] = compound: O=S(=O)(Cl)C(F)(F)C(F)(F)C(F)(F)C(F)(F)C(F)(F)C(F)(F)C(F)(F)C(F)(F)F [Perfluoro-1-octanesulfonyl chloride]
Protocol: as §1

[2] = compound: O=C(O)C(F)(F)C(F)(F)C(F)(F)C(F)(F)C(F)(F)C(F)(F)C(F)(F)C(F)(F)C(F)(F)C(F)F [11-H-Perfluoroundecanoic acid]
Protocol: as §1

[3] = compound: FC(F)(F)C(F)(F)CNCC(F)(F)C(F)(F)F [Bis(1H,1H-perfluoropropyl)amine]
Protocol: as §1

[4] = compound: NS(=O)(=O)C(F)(F)C(F)(F)C(F)(F)C(F)(F)C(F)(F)C(F)(F)F [Perfluorohexanesulfonamide]
Protocol: as §1

Test System | level (log10) (Heptafluorobutyl iodide; 6700 nM) | level (log10) (Heptafluorobutyl iodide; 20000 nM) | level (log10) (Heptafluorobutyl iodide; 60000 nM) | level (log10) ([1]; 6700 nM) | level (log10) ([1]; 20000 nM) | level (log10) ([1]; 60000 nM) | level (log10) ([2]; 6700 nM) | level (log10) ([2]; 20000 nM) | level (log10) ([3]; 6700 nM) | level (log10) ([3]; 20000 nM) | level (log10) ([3]; 60000 nM) | level (log10) ([4]; 6700 nM) | level (log10) ([4]; 20000 nM) | level (log10) ([4]; 60000 nM)
KF3CT:CXCL10/IP-10 | -0.009 ± 0.0014 | -0.0175 ± 0.0078 | -0.013 ± 0.0028 | -0.0165 ± 0.00071 | -0.0455 ± 0.00071 | -0.16 ± 0.0099 | -0.036 ± 0.0057 | -0.211 ± 0.011 | -0.0045 ± 0.0078 | -0.0025 ± 0.0035 | 0.0085 ± 0.00071 | -0.012 ± 0.013 | -0.019 ± 0.014 | -0.0875 ± 0.0035
CASM3C:IL-6 | -0.01 ± 0.011 | -0.016 ± 0.0014 | 0.009 ± 0.031 | -0.009 ± 0.03 | -0.024 ± 0.02 | 0.015 ± 0.044 | -0.027 ± 0.014 | -0.0395 ± 0.03 | -0.0335 ± 0.047 | -0.035 ± 0.02 | 0.0065 ± 0.023 | -0.0145 ± 0.013 | -0.054 ± 0.0099 | -0.0495 ± 0.044
BE3C:MMP-9 | -0.005 ± 0.0014 | -0.0085 ± 0.0064 | 0.0115 ± 0.015 | -0.018 ± 0.0042 | 0.0275 ± 0.0078 | -0.35 ± 0.037 | -0.058 ± 0.04 | -0.277 ± 0.049 | -0.026 ± 0.0042 | -0.0175 ± 0.011 | 0.009 ± 0.042 | -0.0585 ± 0.015 | -0.0435 ± 0.005 | -0.131 ± 0.028
3C:CXCL9/MIG | -0.01 ± 0.0028 | -0.0095 ± 0.0021 | 0.0025 ± 0.0035 | -0.011 ± 0.0057 | -0.003 ± 0.0028 | 0.021 ± 0.018 | -0.005 ± 0.0085 | -0.002 | 0.0005 ± 0.013 | 0.003 ± 0.0071 | 0.016 ± 0.025 | -0.0165 ± 0.005 | -0.0055 ± 0.0021 | 0.009 ± 0.0071
CASM3C:CCL2/MCP-1 | -0.0055 ± 0.0021 | -0.021 ± 0.011 | 0.018 ± 0.045 | -0.0025 ± 0.0078 | -0.0115 ± 0.0092 | 0.031 ± 0.044 | 0.0005 ± 0.0035 | 0.012 ± 0.024 | -0.0065 ± 0.013 | -0.0205 ± 0.015 | -0.0055 ± 0.04 | -0.006 ± 0.0014 | 0.0015 ± 0.012 | 0.028 ± 0.017
lMphg:CD106/VCAM-1 | -0.0115 ± 0.005 | -0.022 ± 0.0085 | -0.0175 ± 0.016 | 0.008 ± 0.0057 | 0.0135 ± 0.0078 | 0.0255 ± 0.00071 | -0.0065 ± 0.0035 | 0.014 ± 0.023 | 0.0135 ± 0.011 | 0.0055 ± 0.0092 | 0.0075 ± 0.0035 | -0.0155 ± 0.025 | -0.012 ± 0.024 | -0.0805 ± 0.018
3C:SRB | -0.0045 ± 0.0064 | -0.0025 ± 0.012 | 0.0025 ± 0.021 | -0.0105 ± 0.0078 | 0.0015 ± 0.022 | -0.233 ± 0.084 | 0.0095 ± 0.012 | 0.01 ± 0.025 | -0.02 ± 0.021 | 0.0105 ± 0.0092 | 0.0075 ± 0.0064 | -0.01 ± 0.011 | -0.0125 ± 0.0078 | -0.139 ± 0.014
CASM3C:LDLR | -0.0015 ± 0.00071 | 0.0025 ± 0.005 | 0.0145 ± 0.015 | -0.0105 ± 0.005 | -0.011 ± 0.017 | 0.0095 ± 0.037 | -0.0025 ± 0.005 | -0.006 ± 0.0099 | -0.005 ± 0.0099 | -0.0065 ± 0.0021 | -0.001 ± 0.025 | -0.003 ± 0.014 | -0.0105 ± 0.005 | -0.04 ± 0.011
BE3C:MMP-1 | 0 ± 0.0014 | -0.0085 ± 0.005 | 0.02 ± 0.0099 | 0.075 ± 0.03 | 0.27 ± 0.012 | -0.178 ± 0.047 | 0.068 ± 0.013 | -0.132 ± 0.012 | -0.0145 ± 0.026 | -0.014 ± 0.011 | 0.0185 ± 0.049 | 0.0255 ± 0.015 | 0.0645 ± 0.0035 | 0.195 ± 0.02
HDF3CGF:MMP-1 | -0.014 ± 0.028 | -0.0195 ± 0.021 | -0.0255 ± 0.025 | -0.0435 ± 0.019 | -0.017 ± 0.0099 | 0.016 ± 0.028 | -0.096 ± 0.034 | -0.0815 ± 0.005 | 0.001 ± 0.0028 | -0.0145 ± 0.0092 | 0.0075 ± 0.0092 | 0.0145 ± 0.0064 | 0.0155 ± 0.0035 | -0.0185 ± 0.028
4H:CCL26/Eotaxin-3 | 0.0215 ± 0.023 | 0.0385 ± 0.023 | 0.0485 ± 0.032 | 0.012 ± 0.014 | -0.066 ± 0.0071 | -0.0725 ± 0.043 | -0.0435 ± 0.012 | -0.0535 ± 0.037 | 0.06 ± 0.045 | 0.0245 ± 0.059 | 0.041 ± 0.064 | -0.0015 ± 0.005 | -0.0285 ± 0.028 | -0.1 ± 0.0071
HDF3CGF:CD106/VCAM-1 | 0.0715 ± 0.03 | 0.0695 ± 0.057 | 0.0585 ± 0.076 | -0.051 ± 0.04 | -0.0065 ± 0.0064 | -0.042 ± 0.0085 | -0.085 ± 0.051 | -0.234 ± 0.0064 | 0.017 ± 0.017 | 0.0115 ± 0.013 | 0.009 ± 0.0085 | -0.0505 ± 0.059 | -0.034 ± 0.042 | -0.205 ± 0.0092
lMphg:SRB | -0.0035 ± 0.0035 | 0.0065 ± 0.0092 | 0.0045 ± 0.0064 | -0.004 ± 0.0014 | -0.004 ± 0.011 | -0.002 ± 0.0071 | -0.004 ± 0.0057 | 0.017 ± 0.0099 | -0.0085 ± 0.00071 | -0.007 ± 0.0028 | 0.009 ± 0.018 | -0.007 ± 0.0042 | -0.015 ± 0.0028 | -0.0645 ± 0.0064
CASM3C:CD87/uPAR | -0.017 ± 0.0042 | 0.0205 ± 0.029 | -0.0015 ± 0.00071 | -0.0235 ± 0.054 | -0.0285 ± 0.054 | -0.0155 ± 0.069 | -0.0165 ± 0.011 | -0.025 ± 0.0071 | -0.0255 ± 0.012 | -0.0155 ± 0.019 | -0.012 ± 0.035 | -0.01 ± 0.0071 | -0.028 ± 0.0028 | -0.029 ± 0.033
3C:CD87/uPAR | -0.0375 ± 0.0092 | -0.05 ± 0.051 | -0.032 ± 0.041 | 0.011 ± 0.024 | -0.0065 ± 0.016 | -0.199 ± 0.033 | -0.0065 ± 0.018 | 0.0045 ± 0.023 | 0.021 ± 0.0028 | 0.0045 ± 0.015 | -0.0075 ± 0.0064 | -0.0335 ± 0.0035 | -0.0565 ± 0.036 | -0.137 ± 0.035
4H:CCL2/MCP-1 | -0.007 ± 0.027 | -0.0215 ± 0.011 | -0.0265 ± 0.021 | -0.0125 ± 0.021 | -0.0475 ± 0.0035 | -0.11 ± 0.12 | -0.0625 ± 0.021 | -0.0615 ± 0.013 | -0.0345 ± 0.012 | -0.035 ± 0.0042 | -0.0105 ± 0.026 | 0.002 ± 0.027 | -0.033 ± 0.0028 | -0.136 ± 0.031
CASM3C:SRB | -0.0085 ± 0.0064 | 0.002 ± 0.0042 | 0.0055 ± 0.0078 | 0.0075 ± 0.00071 | 0.0045 ± 0.0078 | 0.014 ± 0.0042 | 0.0025 ± 0.0078 | 0.008 ± 0.0028 | 0.0065 ± 0.005 | -0.001 ± 0.0028 | 0.008 | 0.004 ± 0.013 | 0.006 ± 0.013 | -0.0035 ± 0.0078
3C:Proliferation | -0.0165 ± 0.00071 | 0.005 ± 0.023 | 0.014 ± 0.041 | -0.003 ± 0.0042 | 0.009 ± 0.03 | -0.112 ± 0.037 | -0.0185 ± 0.074 | 0.0405 ± 0.016 | 0.008 ± 0.023 | 0.0205 ± 0.00071 | -0.0025 ± 0.018 | -0.0605 ± 0.011 | -0.0635 ± 0.069 | -0.334 ± 0.024
lMphg:M-CSF | -0.026 ± 0.014 | -0.0165 ± 0.005 | -0.0245 ± 0.039 | -0.023 ± 0.042 | -0.012 ± 0.031 | 0.0215 ± 0.04 | -0.019 ± 0.0071 | -0.007 ± 0.018 | -0.007 ± 0.011 | -0.0145 ± 0.022 | 0.0165 ± 0.021 | -0.051 ± 0.072 | -0.113 ± 0.037 | -0.119 ± 0.051
